Results taken from patent US20250177582A1, “HIGH-AFFINITY LIGANDS OF FIBROBLAST ACTIVATION PROTEIN FOR TARGETED DELIVERY APPLICATIONS” (PHILOCHEM AG, priority 2022, published 2025).
Entries after “also recorded” stand apart in the source; their conditions may differ. Like-named read-outs stand apart in the source and are kept apart here.

Key:
[1] = biological target: murine FAP (Mus musculus (Mouse), UniProt P97321); test: Inhibition assay of FAP (fluorogenic substrate Z-Gly-Pro-AMC); type: biochemical; conditions: substrate Z-Gly-Pro-AMC 20 μM; 66 pM murine FAP; room temperature
Description: (§1) Inhibition assay of FAP. The compounds were precisely weighed (range between […]) on a micro-scale (HuberLab, Sartorius QUINTIX35-1S) and dissolved in DMSO to prepare stock solutions at 1 mM. Stock solutions were further diluted with FAP activation buffer (50 mM Tris, 100 mM NaCl, 1 mM EDTA, pH=7.4) to a final DMSO concentration of 10% v/v. 10 μL of each inhibitor were serially diluted in a 384 well plate (grenier-bio one, PS, F-bottom, Black, non-binding) with 10 μL of 10% DMSO FAP buffer (1:1 dilution). FAP (human and murine) was diluted to the desired concentration with FAP activation buffer and added to the serial dilution of inhibitor (10 μL for each well). Each protein-inhibitor solution was incubated for 30 minutes at room temperature. Each measurement was performed with an enzyme concentration (FAP) lower than the expected IC50. A 60 μM solution of substrate (Z-Gly-Pro-AMC) in FAP activation buffer (<1% DMSO) was added to the plate (10 μL for each well). The reaction was incubated from 1 minute to 48 hours (see FIG. 2) at room temperature (22° C.-25° C.). The emission was read at 465 nm (excitation wavelength 360 nm) for 40 μs by Tecan Spark (s.n. 1808004082). The following controls were added to each row: positive control (no inhibitor control, 10 μL of 10% DMSO FAP buffer+10 μL of FAP solution+10 μL of substrate solution), negative control (no protein control, 10 μL of 10% DMSO FAP buffer+10 μL of FAP activation buffer+10 μL of substrate solution).
(§2) Normalization of values: The “% of FAP activity” can be calculated with the following formula:
(§3) FIG. 3: Inhibition assay performed with compounds 1, 2, 3, 4, 5, 6, 8 against a) 66 pM human FAP and b) 66 pM murine FAP. The concentration of substrate (Z-Gly-Pro-AMC) was kept constant=20 μM. The assay was incubated for 48 hours at 22.6° C. Error bars display SEM.
(§4) FIG. 4: a) Inhibition assay performed with compounds 8, 9 and 10 against 66 pM human FAP. The assay was incubated for 17 hours at 25° C. b) Inhibition assay performed with compound 9 against 66 pM murine FAP. The assay was incubated for 17 hours at 25° C. In both assays the concentration of substrate (Z-Gly-Pro-AMC) was kept constant=20 μM. Error bars display SEM.

[2] = biological target: human FAP (Homo sapiens (Human), UniProt Q12884); test: as above; type: biochemical; conditions: for FAP inhibition potency (in words): SAR comparison; for FAP binding relative to the parent compound (in words): effect of arginine-based tail / of removing furan as group W
Description: as §1, §2
The concentration of substrate (Z-Gly-Pro-AMC) was kept constant=20 μM. Dashed lines corresponds to sets of data with unstable fitting. […] Error bars display SEM.
as §3, §4
FIG. 19. A: Chemical structures and corresponding IC50(hFAP) values of compounds according to the present invention. B: Chemical structures and corresponding IC50 values of compounds where the propargyl moiety at position AA^2 was replaced by different groups (Me, iPr, Bn) using both R and S stereoisomers. The sites of modification have been highlighted with arrows. Each measurement was performed with a FAP concentration lower than the expected IC50. Depending on FAP concentration, the fluorescence was measured between 10 minutes and 48 h (at room temperature) after the addition of the fluorogenic substrate (Z-Gly-Pro-AMC). IC50 values and standard errors were calculated using “[Inhibitor] vs. response—Variable slope (four parameters)” fitting (Graphpad Prism). […] By introducing the quinoline-based moiety, a single-digit nanomolar inhibitor was obtained. […] The replacement of propargylglycine with S-phenylalanine improved potency of the lead compound of additional ˜2-folds (compound 14).

[3] = system: SK-RC-52.hFAP cells; test: Confocal microscopy on living cells; type: cell-based; conditions: 150 nM; imaged 1 h after incubation
Description: SK—RC-52.hFAP and SK—RC-52.wt cells were seeded into g-Slide 8 Well high Glass Bottom at a density of 5×10^4 cells per well in 300 μL of RPMI medium supplemented with 10% fetal calf serum (FCS), AA, and Hepes (10 mM) and allowed to grow overnight under standard culture conditions. Hoechst 33342 nuclear dye was used to stain nuclear structures. The culture medium was replaced with fresh medium containing either compound 36 or 29 (150 nM). Randomly selected colonies were imaged 1 h after incubation on the confocal microscope Zeiss LSM 880 airyscan (Zeiss). Fiji was used for the data processing and visualization.

[4] = system: FAP positive SKRC-52.hFAP; test: Flow cytometry (FACS) binding; type: cell-based; conditions: 100 nM; 1 h on ice
Description: (§5) Cells were detached from culture plates using Accutase cell detachment solution, counted and suspended to a final concentration of 1.25×10≢cell/100 μL in a solution of FACS buffer (1% bovine serum albumin, 2 mM EDTA, in 500 mL PBS pH 7.4). Aliquots of 2.5×10≡cells (200 μL) were spun down and resuspended in solutions of compound 36 and compound 29 (100 μL; 100 nM) in FACS buffer and incubated on ice in the dark for 1 h. Cells were washed once with 200 μl FACS (1% v/v)/PBS (pH=7.4), spun down, resuspended in a solution of FACS buffer and analyzed via a BD LSRFortessa™ Cell Analyzer (Biosciences). FlowJo Version 8.7 (Treestar) was used for the data analysis and visualization.

[5] = system: FAP negative SKRC-52.wt; test: Flow cytometry (FACS) binding; type: cell-based; conditions: 100 nM; 1 h on ice
Description: as §5

[6] = substrate Z-Gly-Pro-AMC 20 μM, FAP concentration lower than expected IC50 (66 pM in FIG. 3, 4), room temperature, read-out: IC50 vs human FAP

Chain of human FAP (Q12884 whole entry): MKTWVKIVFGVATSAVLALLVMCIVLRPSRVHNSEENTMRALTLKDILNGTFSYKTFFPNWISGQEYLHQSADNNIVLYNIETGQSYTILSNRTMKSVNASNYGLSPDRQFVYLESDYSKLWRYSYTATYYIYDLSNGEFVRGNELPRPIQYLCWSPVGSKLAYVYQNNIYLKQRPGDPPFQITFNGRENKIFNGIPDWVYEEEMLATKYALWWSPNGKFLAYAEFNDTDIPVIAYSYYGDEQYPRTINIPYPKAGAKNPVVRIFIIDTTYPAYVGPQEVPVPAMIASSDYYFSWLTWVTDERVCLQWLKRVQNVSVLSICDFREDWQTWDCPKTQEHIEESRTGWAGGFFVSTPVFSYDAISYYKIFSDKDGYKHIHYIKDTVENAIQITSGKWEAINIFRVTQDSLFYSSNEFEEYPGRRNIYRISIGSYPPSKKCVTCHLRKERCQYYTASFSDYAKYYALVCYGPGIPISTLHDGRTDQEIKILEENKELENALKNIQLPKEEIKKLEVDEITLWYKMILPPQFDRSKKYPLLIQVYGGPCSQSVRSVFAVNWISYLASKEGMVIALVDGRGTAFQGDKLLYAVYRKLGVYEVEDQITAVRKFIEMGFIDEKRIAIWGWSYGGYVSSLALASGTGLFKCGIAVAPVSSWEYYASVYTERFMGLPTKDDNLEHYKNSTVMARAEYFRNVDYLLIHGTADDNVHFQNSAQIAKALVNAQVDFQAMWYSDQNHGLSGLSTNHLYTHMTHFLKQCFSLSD
Chain of murine FAP (P97321 whole entry): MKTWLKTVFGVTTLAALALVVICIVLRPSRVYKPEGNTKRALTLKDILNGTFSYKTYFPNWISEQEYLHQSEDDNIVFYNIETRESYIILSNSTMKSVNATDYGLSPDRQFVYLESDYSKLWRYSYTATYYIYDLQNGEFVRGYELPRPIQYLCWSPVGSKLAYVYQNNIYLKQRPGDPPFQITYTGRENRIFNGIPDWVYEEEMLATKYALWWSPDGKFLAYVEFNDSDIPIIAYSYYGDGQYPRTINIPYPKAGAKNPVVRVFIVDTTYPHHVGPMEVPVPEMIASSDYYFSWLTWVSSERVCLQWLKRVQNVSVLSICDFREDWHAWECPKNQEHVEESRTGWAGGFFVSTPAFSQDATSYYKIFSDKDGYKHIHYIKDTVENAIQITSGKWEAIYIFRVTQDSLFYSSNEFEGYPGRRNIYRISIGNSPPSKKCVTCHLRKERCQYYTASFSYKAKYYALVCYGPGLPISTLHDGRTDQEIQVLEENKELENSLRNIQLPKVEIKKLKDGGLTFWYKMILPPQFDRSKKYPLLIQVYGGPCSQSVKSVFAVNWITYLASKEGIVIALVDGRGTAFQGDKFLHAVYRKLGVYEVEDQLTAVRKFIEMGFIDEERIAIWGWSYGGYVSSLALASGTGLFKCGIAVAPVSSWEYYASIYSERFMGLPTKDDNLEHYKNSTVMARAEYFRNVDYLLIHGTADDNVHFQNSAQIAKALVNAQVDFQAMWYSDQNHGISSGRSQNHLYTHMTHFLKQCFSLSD

Structure (SMILES)	IC50 [1]	IC50 [2, 6]	other results
C#CC[C@H](NC(=O)[C@H](CCCNC(=N)N(C)C)NC(=O)CCC(=O)Nc1cccc2c(C(=O)NCC(=O)N3CC(F)(F)C[C@H]3C#N)ccnc12)C(=O)N[C@@H](CCCCN)C(=O)O [Compound 9]	0.115 nM	0.439 nM	FAP inhibition potency (in words) [2]: sub-nanomolar range; also recorded: increased strongly
CN(C)C(=N)NCCC[C@H](NC(=O)CCC(=O)Nc1cccc2c(C(=O)NCC(=O)N3CC(F)(F)C[C@H]3C#N)ccnc12)C(=O)N[C@@H](Cc1ccccc1)C(=O)NCCNC(=S)Nc1ccc2c(c1)C(=O)OC21c2ccc(O)cc2Oc2cc(O)ccc21 [Compound 29]			internalization, confocal microscopy [3]: Internalization was not observed; staining pattern, confocal microscopy [3]: Membrane-specific staining; staining of FAP-positive cells, flow cytometry [4]: stained; binding on wild-type (FAP-negative) cells, flow cytometry [5]: no binding
C[C@H](NC(=O)[C@H](CCCNC(=N)N)NC(=O)CCC(=O)Nc1cccc2c(C(=O)NCC(=O)N3CC(F)(F)C[C@H]3C#N)ccnc12)C(=O)N[C@@H](CCCCN)C(=O)O [Compound 18]		1.54 nM	
CN(C)C(=N)NCCC[C@H](NC(=O)CCC(=O)Nc1cccc2c(C(=O)NCC(=O)N3CC(F)(F)C[C@H]3C#N)ccnc12)C(=O)N[C@@H](Cc1ccccc1)C(=O)N[C@@H](CCCCN)C(=O)O [Compound 11]		0.156 nM	FAP inhibition potency (in words) [2]: picomolar range
N#C[C@@H]1CC(F)(F)CN1C(=O)CNC(=O)c1ccnc2c(NC(=O)CCC(=O)N[C@@H](CCCNC(=N)N)C(=O)N[C@H](Cc3ccccc3)C(=O)N[C@@H](CCCCN)C(=O)O)cccc12 [Compound 15]		604 nM	
N#C[C@@H]1CC(F)(F)CN1C(=O)CN [reference compound]		24100 nM	
C[C@@H](NC(=O)[C@H](CCCNC(=N)N)NC(=O)CCC(=O)Nc1cccc2c(C(=O)NCC(=O)N3CC(F)(F)C[C@H]3C#N)ccnc12)C(=O)N[C@@H](CCCCN)C(=O)O [Compound 19]		0.991 nM	
C#CC[C@H](NC(=O)CCC(=O)N1CC(F)(F)C[C@H]1C#N)C(=O)N[C@@H](CCCCN)C(=O)O [Compound 6]	22700 nM	17200 nM	FAP binding relative to the parent compound (in words) [2]: worsening
CN(C)C(=N)NCCC[C@H](NC(=O)c1coc(CNC(=O)CCC(=O)N2CC(F)(F)C[C@H]2C#N)c1)C(=O)N[C@@H](CCCCN)C(=O)O [Compound 4]	154 nM	178 nM	FAP binding relative to the parent compound (in words) [2]: significant improvement
N#C[C@@H]1CC(F)(F)CN1C(=O)CNC(=O)c1ccnc2c(NC(=O)CCC(=O)O)cccc12 [Compound 8, (S)-4-((4-((2-(2-cyano-4,4-difluoropyrrolidin-1-yl)-2-oxoethyl)carbamoyl)quinolin-8-yl)amino)-4-oxobutanoic acid, reference compound]	16.1 nM	10.9 nM	IC50 ([2]; 22.6° C., [hFAP] 2.5 nM to 39 pM, substrate 20 μM, read-out: IC50 values from fitted curves, inhibition assay performed overtime): 6 to 21 nM
C#CC[C@H](NC(=O)c1coc(CNC(=O)CCC(=O)N2CC(F)(F)C[C@H]2C#N)c1)C(=O)N[C@@H](CCCCN)C(=O)O [Compound 5]	3900 nM		
N#C[C@@H]1CC(F)(F)CN1C(=O)CNC(=O)c1ccnc2c(NC(=O)CCC(=O)N[C@@H](CCCNC(=N)N)C(=O)N[C@@H](Cc3ccccc3)C(=O)N[C@@H](CCCCN)C(=O)O)cccc12 [Compound 14]		0.353 nM	improvement of potency over the lead compound on replacing propargylglycine with S-phenylalanine ([2]; L-arginine building block (R=H)): ~2 folds
C#CC[C@H](NC(=O)[C@H](CCCNC(=N)N(C)C)NC(=O)c1coc(CNC(=O)CCC(=O)N2CC(F)(F)C[C@H]2C#N)c1)C(=O)N[C@@H](CCCCNC(=S)Nc1ccc2c(c1)C(=O)OC21c2ccc(O)cc2Oc2cc(O)ccc21)C(=O)O [Compound 36]			internalization, confocal microscopy [3]: Internalization was not observed; staining pattern, confocal microscopy [3]: Membrane-specific staining; staining of FAP-positive cells, flow cytometry [4]: stained; binding on wild-type (FAP-negative) cells, flow cytometry [5]: no binding
CN(C)C(=N)NCCC[C@H](NC(=O)CCC(=O)Nc1cccc2c(C(=O)NCC(=O)N3CC(F)(F)C[C@H]3C#N)ccnc12)C(=O)N[C@@H](Cc1ccccc1)C(=O)NCCN [Compound 27]		1.02 nM	
C#CC[C@@H](NC(=O)[C@H](CCCNC(=N)N(C)C)NC(=O)c1coc(CNC(=O)CCC(=O)N2CC(F)(F)C[C@H]2C#N)c1)C(=O)N[C@@H](CCCCN)C(=O)O [Compound 3]	38.4 nM	60 nM	
N#C[C@@H]1CC(F)(F)CN1C(=O)CCC(=O)O [Compound 1]	200000 nM	249000 nM	
CN(C)C(=N)NCCC[C@H](NC(=O)CCC(=O)Nc1cccc2c(C(=O)NCC(=O)N3CC(F)(F)C[C@H]3C#N)ccnc12)C(=O)N[C@@H](Cc1ccccc1)C(=O)NCCNC(=O)OC(C)(C)C [Compound 26]		0.0748 nM	
CC(C)[C@@H](NC(=O)[C@H](CCCNC(=N)N)NC(=O)CCC(=O)Nc1cccc2c(C(=O)NCC(=O)N3CC(F)(F)C[C@H]3C#N)ccnc12)C(=O)N[C@@H](CCCCN)C(=O)O [Compound 17]		0.697 nM	
C#CC[C@H](NC(=O)CCC(=O)Nc1cccc2c(C(=O)NCC(=O)N3CC(F)(F)C[C@H]3C#N)ccnc12)C(=O)N[C@@H](CCCCN)C(=O)O [Compound 10]		4.38 nM	
CC(C)[C@H](NC(=O)[C@H](CCCNC(=N)N)NC(=O)CCC(=O)Nc1cccc2c(C(=O)NCC(=O)N3CC(F)(F)C[C@H]3C#N)ccnc12)C(=O)N[C@@H](CCCCN)C(=O)O [Compound 16]		1.66 nM	
